What was measured:
[1] = system: MDA-MB-231 breast cancer cells co-injected with Cav-1-deficient stromal fibroblasts; test: Human tumor xenograft: nude mice co-injected with MDA-MB-231 cells and Cav-1-deficient stromal fibroblasts, treated with glycolysis inhibitors; assay type: in vivo; conditions: given individually, dosage of 200 mg/kg
Method: Treatment with Glycolysis Inhibitors Functionally Blocks Cancer-Associated Fibroblast Induced Breast Cancer Tumor Growth. […] Mice co-injected with Cav-1-deficient stromal fibroblasts and MDA-MB-231 breast cancer cells were treated with glycolysis inhibitors. The efficacy of two well-established glycolysis inhibitors, namely 2-DG (2-deoxy-D-glucose) and DCA (dichloro-acetate), individually or in combination were tested.
To provide additional experimental validation for the idea that an absence of stromal Cav-1 promotes breast cancer tumor growth and angiogenesis, a 2-component cell-system using xenografts in immuno-deficient female nude mice was developed. Briefly, the flanks of nude mice were injected with a mixture of 1) MDA-MB-231 cells (a highly aggressive human breast cancer cell line; 1.0×10-6 cells) and 2) stromal fibroblasts, derived from either WT or Cav-1 (−/−) null mice (0.3×10-6 cells). After 3 weeks, nude mice were sacrificed and breast cancer-derived tumors were subjected to analysis for growth (tumor weight and volume measurements) and immuno-histochemistry with markers of angiogenesis, such as CD31 (a.k.a, PECAM1).
In this two-component system, nude mice are co-injected with i) human breast cancer ceils (MDA-MB-231), and ii) stromal fibroblasts (WT versus Cav-1 (−/−) deficient). […]

[2] = system: PD-ECGF/TP transfected cells; conditions: transfected compared with untransfected wild-type cells; Haraguchi (1993); cited from earlier work
breast cancer patients = test: Progression-free survival of breast cancer patients (tissue microarray cohort) by stromal Cav-1 and tamoxifen use; assay type: in vivo, human; conditions: Tamoxifen use Yes vs No (ref); adjusted for T stage, N stage, Cav-1 score
Method: Breast tissues for tissue microarray construction were obtained from the Surgical Pathology files at the University of Michigan with Institutional Review Board (IRB) approval. The TMA contained tissues derived from 154 largely consecutive patients with invasive carcinomas of the breast, with follow-up information treated at the University of Michigan from 1987-1991. Clinical and pathological variables were determined following well-established criteria. All invasive carcinomas were graded according to the method described by Elston and Ellis 17; Lymphovascular Invasion (LV1) was classified as either present or absent. […]
Cav-1 expression in the tumor stroma was assessed by employing a standard immuno-peroxidase method (DakoCytornation LSAB2 System-HRP, Carpinteria, Calif.), using rabbit polyclonal antl-Cav-1 TgG (N-20; directed against Ntenninal residues 2-21 of human Cav-1; Santa Cruz Biotechnology, Santa Cruz, Calif.; dilution 1:500). The staining was scored semi-quantitatively as negative (0; no staining), weak (1; either diffuse weak staining or strong staining in less than 30% of stromal cells per core) and strong (2; defined as strong staining of 30% or more of the stromal cells). […]
For each patient, the date of breast cancer diagnosis, date of last follow-up, vital status at last follow-up, causes of death (breast cancer or other), and breast cancer recurrence, were recorded. […]

neovascularization = conditions: Oikawa (1988); cited from earlier work
[3] = system: Cav-1 in stromal fibroblasts co-cultured with MCF-7 cells; test: Co-culture of MCF-7 breast cancer cells with normal human fibroblasts: Cav-1 down-regulation; assay type: cell-based; conditions: co-culture with MCF-7 cells
Source text: Using this system, it was observed that within 5 days of co-culture MCF-7 cells down-regulate the expression of Cav-1 in adjacent stromal fibroblasts. This occurs via the degradation of Cav-1 in lysosomal structures, and can be inhibited by chloroquine, an anti-lysomal agent. Most importantly, MCF-7 cells induce oxidative stress in the adjacent fibroblasts via the over-production of reactive oxygen species (ROS). ROS, in turn, is known to stabilize and activate certain transcription factors, such as NFkB and HIF. NFkB- and HIF-are the master regulators of “inflammation” and “hypoxia/aerobic glycolysis” in the tumor microenvironment. Thus, in order to detect the activation of NFkB and HIF only in the fibroblast cell population, two different fibroblast cell lines engineered to express either a NFkB-luciferase or HIF-luciferase transcriptional reporter were used. […] As such, NFkB is activated first, while HIF is activated on day 4 and day 5 of coculture, coincident with Cav-1 down-regulation. Thus, cancer cells induce the Warburg effect in adjacent stromal fibroblasts via the activation of NFkB and HIF-target genes, leading to inflammation and aerobic glycolysis. These findings provide a mechanistic basis for the “Reverse Warburg Effect”, and a new high-throughput drug-screening assay for the identification of novel compounds that block the “Reverse Warburg Effect”.

## O=CC[C@@H](O)[C@H](O)[C@H](O)CO [2-DG, 2-deoxy-D-glucose]
[1]
  effect on tumor growth: no effect

## O=C(O)C(Cl)Cl [DCA, dichloro-acetate]
[1]
  effect on tumor growth: no effect

## C[C@H]1O[C@@H](n2cc(F)c(=O)[nH]c2=O)[C@H](O)[C@@H]1O [5′DFUR, 5′-deoxy-5-fluorouridine]
[2]
  antitumor effect: dramatic enhancement of antitumor effect

## CC/C(=C(\c1ccccc1)c1ccc(OCCN(C)C)cc1)c1ccccc1 [Tamoxifen]
Breast cancer patients
  Cox regression of Progression-Free Survival (PFS): Coefficient: −0.476

## CC(=O)O[C@]1(C(C)=O)CC[C@H]2[C@@H]3C[C@H](C)C4=CC(=O)CC[C@]4(C)[C@H]3CC[C@@]21C [MPA, medroxyprogesterone acetate]
neovascularization
  neovascularization: potently inhibited

## CCN(CC)CCCC(C)Nc1ccnc2cc(Cl)ccc12 (stereo not drawn) [chloroquine]
[3]
  degradation of Cav-1 in lysosomal structures (Cav-1 down-regulation in adjacent stromal fibroblasts): inhibited

Reference: patent publication US20160139132A1, “Method of Diagnosis or Prognosis of a Neoplasm Comprising Determining the Level of Expression of a Protein in Stromal Cells Adjacent to the Neoplasm” (Thomas Jefferson University, priority 2009, published 2016)
